What is called half-life is how long it takes for the measured level to halve. By fraction remaining is commonly meant the share of the starting amount still present when the sample was taken. Read a low fraction remaining as a greater loss.

The nature of series [1]: Stability of Tam-labeled peptides in human blood plasma (RP-HPLC fluorescence, MALDI-ToF-MS). Particulars: for half-life at 10 μM / remaining at 72 h, 10 μM: human.
Description: (§1) Peptide solutions were diluted as described above and incubated at 37 °C. Samples were precipitated in 2× ACN/EtOH (1:1, v/v) at −20 °C overnight and filtered through Costar Spin-X tubes. The solutions of Tam-labeled peptides diluted with H2O (1:1, v/v) were analyzed by RP-HPLC using a linear gradient of eluent B (0.1% TFA in H2O) in eluent A (0.08% TFA in ACN) over 40 min at 40 °C on a VariTide RPC column (250 mm × 4.6 mm, 200 Å, 6 μm, flow rate 1 mL/min, Agilent Technologies). The relative amount of intact peptide was determined by fluorescence intensity (extinction 525 nm, emission 572 nm). Half-life was calculated by one-phase decay in Prism 10. Furthermore, eluting peptides were collected, lyophilized, and analyzed by MALDI-ToF-MS.
Series [2] is described as follows: Stability of Tam-labeled peptides in HEK-293 cell culture supernatant. Type of series: in vitro ADME. Particulars: for half-life at 10 μM: DMEM with 15% FBS on HEK-293 cells. On the procedure:
The cells were grown under standard conditions. […] The medium was replaced with the peptide solutions.

Series [3] can be described thus: Stability of Tam-labeled peptides in Calu-3 cell culture supernatant.
Description: as §1
HEK-293 cells were cultivated under standard conditions in Dulbecco’s modified Eagle’s medium (DMEM, Biowest)/Ham’s F12 (Biowest, 1:1, v/v) with 15% fetal bovine serum (FBS, Sigma-Aldrich). HEK-293 cells were detached with trypsin/ethylenediaminetetraacetic acid (Lonza) and seeded in a poly-D-lysine hydrobromide (Merck, 0.1 mg/mL)-coated 96-well cell culture microplate (Greiner Bio-One, 100,000 cells/well). The cells were grown under standard conditions. […] Cell differentiation was supported by culturing cells on an air–liquid interface for 10–14 days and monitored by measurement of transepithelial electrical resistance. […]
Series [4] in a line: HEK-293 supernatant (phenol red-free DMEM with 15% FBS). Conditions: up to 72 h.
A short description of series [5]: human blood plasma/DPBS (1:1). Particulars: 37 °C, up to 72 h.

Non-standard residues stand in square brackets, D forms with d. Residues, ends and D or L forms follow the SMILES beside them. *: point of attachment. X1 = CN(C)c1ccc2c(c1)Oc1cc(N(C)C)ccc1C21OC(=O)c2ccc(C(=O)*)cc21; Bip = N[C@@H](Cc1ccc(-c2ccccc2)cc1)C(=O)O; Lauroyl = CCCCCCCCCCCC(=O)* Some results are limits rather than exact numbers.

For the compound `CCCCCCCC(=O)NC[C@H](NC(=O)[C@H](CO)NC(=O)CN)C(=O)N[C@@H](Cc1ccccc1)C(=O)N[C@@H](CC(C)C)C(=O)N[C@@H](CO)C(=O)N1CCC[C@H]1C(=O)N[C@@H](CCC(=O)O)C(=O)N[C@@H](Cc1c[nH]cn1)C(=O)N[C@@H](CCC(N)=O)C(=O)N[C@@H](CCCNC(=N)N)C(=O)N[C@H](C(=O)N[C@@H](CCC(N)=O)C(=O)N[C@@H](CCC(N)=O)C(=O)N[C@@H](CCCNC(=N)N)C(=O)N[C@@H](CCCCNC(=O)c1ccc2c(c1)C1(OC2=O)c2ccc(N(C)C)cc2Oc2cc(N(C)C)ccc21)C(=O)N[C@@H](CCC(=O)O)C(=O)N[C@@H](CO)C(=O)N[C@@H](CCCCN)C(=O)N[C@@H](CCCCN)C(=O)N1CCC[C@H]1C(=O)N1CCC[C@H]1C(=O)N[C@@H](C)C(=O)N[C@@H](CCCCN)C(=O)N[C@@H](CC(C)C)C(=O)N[C@@H](CCC(N)=O)C(=O)N1CCC[C@H]1C(=O)N[C@@H](CCCNC(=N)N)C(=O)O)C(C)C` [peptide 3, [Dpr^3,K^16(Tam)]-Ghr], the half-life at 10 μM is 50.5 h in series [1] (human blood plasma diluted with DPBS (1:1), blood plasma half-life, human blood plasma/DPBS (1:1), 10 μM peptide, 37 °C, one-phase decay); 57.4 h in series [1] (human blood plasma diluted with DPBS (1:1), donor plasma 3, half-life in plasma 3, donor comparison, plasma 3, plasma/DPBS (1:1), 10 μM, 37 °C); 57.1 h in series [2] (human, 10 μM peptide).

Regarding `CCCCCCCCCCCC(=O)NCCCC[C@H](N)C(=O)N[C@H](C(=O)N[C@@H](CC(N)=O)C(=O)N1CCC[C@H]1C(=O)N[C@@H](CCCCNC(=O)c1ccc2c(c1)C1(OC2=O)c2ccc(N(C)C)cc2Oc2cc(N(C)C)ccc21)C(=O)N[C@@H](Cc1ccc(-c2ccccc2)cc1)C(=O)N[C@@H](CCCNC(=N)N)C(=O)N[C@@H](CC(C)C)C(=O)N[C@@H](CCCNC(=N)N)C(=O)N[C@@H](Cc1ccc(O)cc1)C(N)=O)[C@@H](C)CC` [peptide 2, [K^27(Lau),K^31(Tam)]-sNPY(27–36)] (H-K(Lauroyl)INPK(X1)[Bip]RLRY-NH2; N-terminus assumed), the “stability in Calu-3 supernatant compared to HEK-293 supernatant” value in series [3] is “only slightly lower”. Besides, in series [1] (plasma), the half-life at 10 μM was 3.2 h and the share remaining at 72 h, 10 μM stood at 3%. Further, in series [2] (human, 10 μM peptide), the half-life at 10 μM was 23.3 h.

With `CCCCCCCC(=O)NC[C@H](NC(=O)[C@H](CO)NC(=O)CN)C(=O)N[C@@H](Cc1ccccc1)C(=O)N[C@@H](CC(C)C)C(=O)N[C@@H](CO)C(=O)N1CCC[C@H]1C(=O)N[C@@H](CCC(=O)O)C(=O)N[C@@H](Cc1c[nH]cn1)C(=O)N[C@@H](CCC(N)=O)C(=O)N[C@@H](CCCNC(=N)N)C(=O)N[C@H](C(=O)N[C@@H](CCC(N)=O)C(=O)N[C@@H](CCC(N)=O)C(=O)N[C@@H](CCCNC(=N)N)C(=O)N[C@@H](CCCCNC(=O)c1ccc2c(c1)C1(OC2=O)c2ccc(N(C)C)cc2Oc2cc(N(C)C)ccc21)C(=O)N[C@@H](CCC(=O)O)C(=O)N[C@@H](CO)C(=O)N[C@@H](CCCCN)C(=O)N[C@@H](CCCCNC(=O)CCCCCCCCCCCCCCCCC(=O)O)C(=O)N1CCC[C@H]1C(=O)N1CCC[C@H]1C(=O)N[C@@H](C)C(=O)N[C@@H](CCCCN)C(=O)N[C@@H](CC(C)C)C(=O)N[C@@H](CCC(N)=O)C(=O)N1CCC[C@H]1C(=O)N[C@@H](CCCNC(=N)N)C(=O)O)C(C)C` [peptide 4, [Dpr^3,K^16(Tam),K^20(Odd)]-Ghr], the “cleavage products detected by MALDI-ToF MS, Calu-3 supernatant” value in series [3] (HPLC eluents) was “strong C- and N-terminal truncation”. Further, the “cleavage products detected by MALDI-ToF MS, blood plasma” value in series [1] (HPLC eluents) is on record as “no cleavage was observed”. Also, the amount remaining at 72 h, 10 μM in series [1] (human blood plasma) is around 90%. Also, the “cleavage products detected by MALDI-ToF MS, HEK-293 supernatant” value in series [2] (HPLC eluents) is “no cleavage was observed”. Moreover, the metabolised at 72 h, 10 μM in series [2] (human, HEK-293 cell culture supernatant, 10 μM peptide, DMEM with 15% FBS, 72 h, read-out: degradation over 72 h in HEK-293 supernatant) is below 10%.

With “GS-Dpr(Oct)-FLSPEHQRVQQRK(Tam)ESKK(Odd)PPAKLQPR”, the results for the not cleaved result in series [4] and in series [5] were “degradation of less than 10% over 72 h” and “around 90% intact peptide after 72 h”, respectively.

Values taken from article PMC11555501 (ACS Pharmacology & Translational Science, 2024).
